Earlier results in publication PMC7436013, “Design, Synthesis, and Biological Investigation of Novel Classes of 3-Carene-Derived Potent Inhibitors of TDP1” (Molecules, 2020).

Columns and labels:
TDP1 = tested on: TDP1; parameters: method as in PMID 31619021, PMID 30396105, PMID 30142660, PMID 29562592, PMID 27658793; conditions: Figure 1; ref [10]-[13],[16]-[18],[20],[22]; read-out: IC50 of known TDP1 inhibitors; cited from earlier work
Krebs-2 ascites = tested on: Krebs-2 ascites; parameters: method as in PMID 31878088; conditions: in vivo tumor model, ref [17]; cited from earlier work

CC(C)=CCC/C(C)=C/COc1ccc2c(-c3ccc(F)cc3)cc(=O)oc2c1 [compound 5]
IC50 (TDP1): 620 nM
effect on the antitumor effect of Tpc (Krebs-2 ascites): significant increase in the antitumor effect of Tpc
